The subject of data set [1] is DU-145. Description: cells. It counts as functional, cell-based. The note with it: Homo sapiens.
Description: Antiproliferative activity against human DU-145 cells assessed as inhibition of cell growth incubated for 3 to 5 days by CCK-8 assay
A short description of data set [2]: in vitro. The conditions noted are these: green monkey (Chlorocebus sabaeus), Vero cells.
Description: Antiproliferative activity against green monkey Vero cells assessed as inhibition of cell growth incubated for 3 to 5 days by CCK-8 assay
Data set [3] is described as follows: Drug uptake in human DU-145 cells assessed as colocalization in […] by measuring fluorescence signal at 10 uM incubated for 30 mins by Mito-Tracker Green staining based fluorescence imaging analysis. The format is ADME, cell-based. The conditions noted are these: du-145, 0.5 h.
For data set [4], the target named is T1, Protein deacetylase HDAC6 (Homo sapiens, UniProt Q9UBN7).
T1 sequence (Q9UBN7 whole entry): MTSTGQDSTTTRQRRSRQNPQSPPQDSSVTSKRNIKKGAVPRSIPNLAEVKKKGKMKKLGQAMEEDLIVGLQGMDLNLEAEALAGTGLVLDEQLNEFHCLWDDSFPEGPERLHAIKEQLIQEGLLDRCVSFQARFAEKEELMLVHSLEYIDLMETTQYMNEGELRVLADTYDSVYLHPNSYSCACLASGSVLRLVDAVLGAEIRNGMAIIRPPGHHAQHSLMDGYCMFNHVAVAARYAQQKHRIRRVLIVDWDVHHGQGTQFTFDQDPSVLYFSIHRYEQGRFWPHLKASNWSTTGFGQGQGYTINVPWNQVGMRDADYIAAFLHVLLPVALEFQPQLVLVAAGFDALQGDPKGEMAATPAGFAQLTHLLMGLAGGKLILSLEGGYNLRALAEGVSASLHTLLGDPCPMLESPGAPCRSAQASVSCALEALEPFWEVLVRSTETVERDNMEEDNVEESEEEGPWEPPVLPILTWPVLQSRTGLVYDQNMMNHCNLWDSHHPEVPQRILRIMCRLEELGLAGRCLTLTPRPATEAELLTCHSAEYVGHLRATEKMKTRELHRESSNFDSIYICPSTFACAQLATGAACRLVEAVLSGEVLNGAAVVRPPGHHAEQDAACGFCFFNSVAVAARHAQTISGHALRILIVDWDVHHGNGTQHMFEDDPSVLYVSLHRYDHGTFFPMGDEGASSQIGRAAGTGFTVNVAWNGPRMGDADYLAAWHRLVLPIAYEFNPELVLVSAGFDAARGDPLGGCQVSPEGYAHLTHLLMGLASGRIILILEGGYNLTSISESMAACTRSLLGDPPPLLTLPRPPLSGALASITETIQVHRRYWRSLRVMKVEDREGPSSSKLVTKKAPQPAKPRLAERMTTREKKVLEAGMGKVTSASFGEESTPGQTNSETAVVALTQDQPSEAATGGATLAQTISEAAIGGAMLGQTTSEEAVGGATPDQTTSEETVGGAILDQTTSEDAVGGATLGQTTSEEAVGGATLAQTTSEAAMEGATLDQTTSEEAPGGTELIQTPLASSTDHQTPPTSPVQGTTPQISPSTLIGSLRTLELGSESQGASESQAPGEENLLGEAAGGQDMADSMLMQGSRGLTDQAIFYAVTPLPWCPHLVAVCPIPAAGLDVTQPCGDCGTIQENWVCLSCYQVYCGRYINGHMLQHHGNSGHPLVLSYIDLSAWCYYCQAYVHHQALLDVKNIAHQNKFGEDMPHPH
Description: Inhibition of HDAC6 (unknown origin) preincubated with compound for 30 mins followed by substrate addition measured after 15 mins by fluorescence based assay.

In data set [5] the target is Estrogen receptor beta (Homo sapiens) (UniProt Q92731). Description: Binding affinity to ERbeta in human DU-145 cells at 10 uM incubated for 30 mins by immunofluorescence based assay. The format is cell-based. The note with it: filed as agonist.
Estrogen receptor beta (Homo sapiens), sequence (Q92731 whole entry): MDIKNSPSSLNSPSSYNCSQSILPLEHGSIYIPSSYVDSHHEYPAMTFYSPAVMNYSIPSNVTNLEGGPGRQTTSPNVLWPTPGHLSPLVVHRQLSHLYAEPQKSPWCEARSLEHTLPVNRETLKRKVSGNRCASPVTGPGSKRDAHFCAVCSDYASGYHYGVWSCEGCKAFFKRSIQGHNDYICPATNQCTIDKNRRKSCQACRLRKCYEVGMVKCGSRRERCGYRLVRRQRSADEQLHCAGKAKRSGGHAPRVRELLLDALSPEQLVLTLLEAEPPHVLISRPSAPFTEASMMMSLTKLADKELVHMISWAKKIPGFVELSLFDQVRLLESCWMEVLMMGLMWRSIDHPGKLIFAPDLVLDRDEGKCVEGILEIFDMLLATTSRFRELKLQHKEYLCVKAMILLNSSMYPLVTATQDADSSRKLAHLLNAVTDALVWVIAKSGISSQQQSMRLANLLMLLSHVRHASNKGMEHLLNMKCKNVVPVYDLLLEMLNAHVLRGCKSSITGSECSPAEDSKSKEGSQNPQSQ
The target of data set [6] is Histone deacetylase 1 (Homo sapiens, UniProt Q13547). Description: Inhibition of HDAC1 (unknown origin) preincubated with compound for 30 mins followed by substrate addition measured after 15 mins by fluorescence based assay.
Histone deacetylase 1, sequence (Q13547 whole entry): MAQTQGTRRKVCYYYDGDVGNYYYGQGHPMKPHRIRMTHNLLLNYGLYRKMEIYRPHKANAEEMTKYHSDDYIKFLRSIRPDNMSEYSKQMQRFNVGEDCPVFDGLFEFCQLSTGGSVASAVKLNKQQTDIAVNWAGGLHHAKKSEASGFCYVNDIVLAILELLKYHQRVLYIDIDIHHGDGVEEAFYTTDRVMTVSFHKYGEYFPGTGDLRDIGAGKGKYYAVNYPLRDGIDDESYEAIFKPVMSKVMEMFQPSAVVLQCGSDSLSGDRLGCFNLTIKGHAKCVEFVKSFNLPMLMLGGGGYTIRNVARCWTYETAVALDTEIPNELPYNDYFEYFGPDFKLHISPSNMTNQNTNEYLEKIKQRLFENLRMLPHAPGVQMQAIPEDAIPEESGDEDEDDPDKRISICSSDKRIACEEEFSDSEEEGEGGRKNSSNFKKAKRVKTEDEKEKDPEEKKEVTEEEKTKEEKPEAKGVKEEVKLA
Data set [7] addresses T2, Protein deacetylase HDAC6 (Homo sapiens) (UniProt Q9UBN7).
T2 sequence (whole entry): T1 sequence (Q9UBN7 whole entry)
Description: Binding affinity to HDAC6 in human DU-145 cells at 10 uM incubated for 30 mins by Alexa Fluor 488 staining based immunofluorescence based assay. It counts as cell-based. The conditions noted are these: filed as agonist.

A short description of data set [8]: Drug uptake in human DU-145 cells assessed as colocalization in nucleus by measuring fluorescence signal at 10 uM incubated for 30 mins by DAPI staining based fluorescence imaging analysis. The format is ADME, cell-based. The conditions noted are these: du-145, 0.5 h.
Data set [9] in a line: Toxicity in Balb/c mouse xenografted with human DU-145 cells assessed as change in body weight at 10 mg/kg,ip administration once every 2 days for 20 days. It counts as organism-based. The conditions noted are these: in vivo, 480 h, time 20 day. In general terms: Xenograft models place foreign cells or tissue in a host animal.
A short description of data set [10]: Drug uptake in Balb/c mouse xenografted with human DU-145 cells assessed as increase in fluorescence intensity in tumor at 0.5 mg/kg,ip administration and measured upto 24 hrs by imaging analysis. It counts as ADME, organism-based. The conditions noted are these: in vivo.
Data set [11] has as its system DU-145. Description: Antitumor activity against human DU-145 cells xenografted in Balb/c mouse assessed as reduction in tumor weight at 10 mg/kg,ip administration once every 2 days for 20 days. The format is functional, organism-based. The note with it: time 20.0 day.
Data set [12] can be described thus: Drug uptake in Balb/c mouse xenografted with human DU-145 cells assessed as increase in fluorescence intensity in kidney at 0.5 mg/kg,ip administration and measured at 17 hrs by imaging analysis. The format is ADME, organism-based. The note with it: in vivo.
The nature of data set [13]: Drug uptake in Balb/c mouse xenografted with human DU-145 cells assessed as increase in fluorescence intensity in tumor tissue at 0.5 mg/kg,ip administration and measured at 24 hrs by imaging analysis. It counts as ADME, organism-based, Neoplasm. The conditions noted are these: in vivo.
Data set [14] concerns the target Estrogen receptor beta (Homo sapiens) (UniProt Q92731). Description: Binding affinity to ERbeta in human DU-145 cells assessed as increase in intracellular fluorescence signal at 10 uM incubated for 30 mins by imaging analysis. The format is cell-based. The conditions noted are these: filed as agonist.
Data set [15] can be described thus: Toxicity in Balb/c mouse xenografted with human DU-145 cells assessed as animal death at 10 mg/kg,ip administration once every 2 days for 20 days. The format is organism-based. The note with it: in vivo, 480 h, time 20 day.
Data set [16] can be described thus: Drug uptake in Balb/c mouse xenografted with human DU-145 cells assessed as increase in fluorescence intensity in tumor at 0.5 mg/kg,ip administration and measured at 12 hrs by imaging analysis. The format is ADME, organism-based. The note with it: in vivo.
Data set [17] deals with DU-145. Description: Antitumor activity against human DU-145 cells xenografted in Balb/c mouse assessed as reduction in tumor volume at 10 mg/kg,ip administration once every 2 days for 20 days. It counts as functional, organism-based. The note with it: time 20.0 day.
Data set [18] deals with Estrogen receptor beta (Homo sapiens) (UniProt Q92731). Description: Binding affinity to ERbeta in human DU-145 cells assessed as increase in intracellular fluorescence signal at 10 uM incubated for 1 hr in presence of SAHA by imaging analysis. The format is cell-based.
Data set [19] has as its system DU-145. Description: Antitumor activity against human DU-145 cells xenografted in Balb/c mouse assessed as inhibition of tumor growth at 10 mg/kg,ip administration once every 2 days for 20 days. The conditions noted are these: time 20.0 day. The format is functional, organism-based.
Data set [20] in a line: Drug uptake in Balb/c mouse xenografted with human DU-145 cells assessed as increase in fluorescence intensity in liver at 0.5 mg/kg,ip administration and measured at 17 hrs by imaging analysis. The note with it: in vivo. It counts as ADME, organism-based.
Data set [21] in a line: Drug uptake in Balb/c mouse xenografted with human DU-145 cells assessed as increase in fluorescence intensity in tumor tissue at 0.5 mg/kg,ip administration and measured at 17 hrs by imaging analysis. It counts as ADME, organism-based, Neoplasm. The note with it: in vivo.
The target in data set [22] is Estrogen receptor beta (Homo sapiens) (UniProt Q92731). Description: Binding affinity to ERbeta in human DU-145 cells assessed as increase in intracellular fluorescence signal at 10 uM incubated for 30 mins in presence of estradiol by imaging analysis. The format is cell-based.
Data set [23] can be described thus: Drug uptake in Balb/c mouse xenografted with human DU-145 cells assessed as increase in fluorescence intensity in tumor at 0.5 mg/kg,ip administration and measured at 17 hrs by imaging analysis. The format is ADME, organism-based. The note with it: in vivo.
The nature of data set [24]: Drug uptake in Balb/c mouse xenografted with human DU-145 cells assessed as increase in fluorescence intensity in tumor tissue at 0.5 mg/kg,ip administration and measured at 36 hrs by imaging analysis. It counts as ADME, organism-based, Neoplasm. The note with it: in vivo.

Calls of active or inactive are those of the source. The calls are words filed in the database; no cut-off is given here. Some results are limits rather than exact numbers.

In general, IC50 refers to the midpoint of a concentration-inhibition curve.

`N#CC(C#N)=C1C=C(/C=C/c2ccc(O)cc2)Oc2ccc(O)cc21`: the IC50 in [1] was 270 nM; in data set [2], 1450 nM.

As to `N#CC(C#N)=C1C=C(/C=C/c2ccc(O)c(NC(=O)CCCCCCC(=O)NO)c2)Oc2ccc(O)cc21`, the Drug uptake entry in [3] and in data set [8] was “Active” in each case. For the same compound, the concentration for half-maximal inhibition (IC50) was 2360 nM in [4], 15300 nM in data set [1], “Not Active” in data set [6] and above 100000 nM in data set [2]. Besides, the Activity in data set [5] stood at 96.3%; in data set [7], 97.6%.

`N#CC(C#N)=C1C=C(/C=C/c2ccc(O)c(NC(=O)CCCCCCC(=O)NO)c2)Oc2ccccc21`: the Activity result in data set [9] is “Non-Toxic”; in data set [5] it was 90.8%; in data set [7], 76.7%; in data set [15], “Non-Toxic”. Further, the Drug uptake entry in data set [10] is “Active”; in [3] it was “Active”; in [12], “Not Active”; in [13] it was “Not Active”; in data set [8], “Active”; in data set [16], “Active”. In addition, the Drug uptake result in [20] was “Not Active”; in [21] it was “Active”; in data set [23] it was “Active”; in [24], “Not Active”. Moreover, the outcome in [11], in data set [14], in data set [17] and in data set [19] was Active. The IC50 in [4] was 52 nM; in [1], 960 nM; in [6], “Not Active”; in [2], 6130 nM. The outcome in [18] and in data set [22] was inactive.

As for `O=C(CCCCCCC(=O)Nc1ccccc1)NO`, the result in [11] and in data set [17] was Active.

The record behind these values is ChEMBL document CHEMBL5505978, “Novel estrogen receptor β/histone deacetylase dual-targeted near-infrared fluorescent probes as theranostic agents for imaging and treatment of prostate cancer” (Eur J Med Chem, 2024).
